Measurements taken from the supplement of paper PMC8671470.

How the values were obtained:
Details in all cases: 72 h
LAMA-84 = test: cell viability (% survival relative to DMSO control, bortezomib = 0%); higher = less cytotoxic
Summary of the method: (§1)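 Fifteen myeloid leukaemia cell lines (10 AML, 5 CML) were seeded at a density titrated to the linear growth range. They went into 384-well plates with compounds pre-printed at 1, 10, 100, 1000 or 10000 nM in duplicate. After 72 h at 37 °C with 5% CO2, viability was read by CellTiter-Glo luminescence. Values are percent survival, with vehicle set to 100% and a 10 µM positive control to 0%, averaged over the duplicates.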

THP-1 = test: as above
Summary of the method: as §1

Mono-Mac-6 = test: as above
Summary of the method: as §1

KG-1 = test: as above
Summary of the method: as §1

ML-2 = test: as above
Summary of the method: as §1

MOLM-13 = test: as above
Summary of the method: as §1

SHI-1 = test: as above
Summary of the method: as §1

K-562 = test: as above
Summary of the method: as §1

KCL-22 = test: as above
Summary of the method: as §1

KU-812 = test: as above
Summary of the method: as §1

BV-173 = test: as above
Summary of the method: as §1

NOMO-1 [1] = test: as above
Summary of the method: as §1

MV4-11 = test: as above
Summary of the method: as §1

HEL = test: as above
Summary of the method: as §1

HL-60 [2] = test: as above
Summary of the method: as §1

NOMO-1 [3] = tested on: NOMO-1
Summary of the method: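 Seeded in RPMI 1640 at densities within the linear growth range, fifteen myeloid leukaemia cell lines were dispensed into 384-well plates with acoustically pre-printed compounds spanning five tenfold doses from 1 to 10,000 nM, in duplicate. The plates were kept for 72 h at 37 °C in 5% CO2 before luminescent ATP viability was measured and normalised to vehicle and to a positive control at 10 µM. Curves were fitted with a four-parameter log-logistic model. The IC50 was taken from those curves.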

HL-60 [4] = test: area under dose-response curve (viability, 1 nM-10 uM) (fraction (0-1)); higher = more sensitive
Summary of the method: (§2)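 In 384-well plates, the full library was rescreened in duplicate on HL-60 cells in RPMI 1640 with 10% FBS, at 1–10,000 nM in five tenfold concentrations, for 72 h at 37 °C, 5% CO2. Each run also held DMSO or 100 nM of one of three metabolic inhibitors. Viability was measured by CellTiter-Glo and normalised to DMSO wells and to wells with proteasome inhibitor, present at 10 μM. Any area under the curve comes from four-parameter log-logistic fitting with drc and PharmacoGx.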

HL-60 [5] = test: cell viability (% survival relative to DMSO control); higher = less cytotoxic
Summary of the method: as §2

OC[C@H]1OC(O)C[C@@H](O)[C@@H]1O (stereo not given in full) [2-deoxyglucose]
Details	area under dose-response curve, co-treatment: AZD3965 100 nM	area under dose-response curve, co-treatment: DMSO vehicle	area under dose-response curve, co-treatment: GSK2194069 100 nM	area under dose-response curve, co-treatment: pictilisib 100 nM	cell viability, 1 nM [%]	cell viability, 10 nM [%]	cell viability, 100 nM [%]	cell viability, 1000 nM [%]	cell viability, 10000 nM [%]
BV-173	–	–	–	–	126	107	109	90.4	106
HEL	–	–	–	–	123	113	112	93.3	95.1
HL-60 [2]	–	–	–	–	82.5	92	106	102	94.7
HL-60 [4]	< 0.0301	< 0.0301	< 0.0301	< 0.0301	–	–	–	–	–
K-562	–	–	–	–	107	117	94.2	101	99.6
KCL-22	–	–	–	–	110	107	107	90.6	104
KG-1	–	–	–	–	111	95.2	98.9	82.6	92.9
KU-812	–	–	–	–	105	101	101	85.1	95.5
LAMA-84	–	–	–	–	107	114	95.6	86.3	96.8
ML-2	–	–	–	–	101	110	102	89.4	96.1
MOLM-13	–	–	–	–	86.7	108	93	90.1	86.4
MV4-11	–	–	–	–	102	91.4	100	92	110
Mono-Mac-6	–	–	–	–	65.6	99.3	102	89.4	99.2
NOMO-1 [1]	–	–	–	–	112	100	107	87.9	93.6
SHI-1	–	–	–	–	112	105	105	93.4	98.3
THP-1	–	–	–	–	92	96.1	105	86.9	100

Details	IC50 (cell viability) [µM]
NOMO-1 [3]	> 10

cell viability [%], HL-60 [5]
Details	0.001 µM	0.01 µM	0.1 µM	1 µM	10 µM
co-treatment: AZD3965 100 nM	107	110	103	103.1	103
co-treatment: DMSO vehicle	104	101	99.45	103.5	97.27
co-treatment: GSK2194069 100 nM	102	107	102	101	104
co-treatment: pictilisib 100 nM	102	109.7	99.6	104	108

Cc1nnc(-c2ccc(N3CCC(Oc4ccccc4C(F)(F)F)CC3)nn2)s1 [MF-438]
Details	area under dose-response curve, co-treatment: AZD3965 100 nM	area under dose-response curve, co-treatment: DMSO vehicle	area under dose-response curve, co-treatment: GSK2194069 100 nM	area under dose-response curve, co-treatment: pictilisib 100 nM	cell viability, 1 nM [%]	cell viability, 10 nM [%]	cell viability, 100 nM [%]	cell viability, 1000 nM [%]	cell viability, 10000 nM [%]
BV-173	–	–	–	–	96.1	108	89.4	137	99.4
HEL	–	–	–	–	102	91.9	106	122	106
HL-60 [2]	–	–	–	–	93.6	92.5	87	127	56.5
HL-60 [4]	< 0.0301	< 0.0301	< 0.0301	< 0.0301	–	–	–	–	–
K-562	–	–	–	–	97	103	32.4	38.2	38.1
KCL-22	–	–	–	–	103	99.6	69	61.3	49.5
KG-1	–	–	–	–	62.5	133	94.3	115	106
KU-812	–	–	–	–	93.9	103	83.9	113	97.5
LAMA-84	–	–	–	–	93.4	85.4	88	76.9	92.6
ML-2	–	–	–	–	96	114	98.6	117	88.3
MOLM-13	–	–	–	–	63.7	86.7	33.9	41.3	36.6
MV4-11	–	–	–	–	91	109	91.2	99.2	45.3
Mono-Mac-6	–	–	–	–	101	100	95.5	99	103
NOMO-1 [1]	–	–	–	–	97.9	99.2	92.8	108	103
SHI-1	–	–	–	–	98.9	98.2	102	113	80.9
THP-1	–	–	–	–	97.9	110	96.5	102	98.1

Details	IC50 (cell viability) [µM]
NOMO-1 [3]	> 10

cell viability [%], HL-60 [5]
Details	0.001 µM	0.01 µM	0.1 µM	1 µM	10 µM
co-treatment: AZD3965 100 nM	88.9	99.9	104	101	89.8
co-treatment: DMSO vehicle	101	101.6	102	100	94.9
co-treatment: GSK2194069 100 nM	92.9	104	93.3	101	86.5
co-treatment: pictilisib 100 nM	109	106	100	94.07	98.1

CC(=O)N[C@@H](CS)C(=O)O [Acetylcysteine]
Details	area under dose-response curve, co-treatment: AZD3965 100 nM	area under dose-response curve, co-treatment: DMSO vehicle	area under dose-response curve, co-treatment: GSK2194069 100 nM	area under dose-response curve, co-treatment: pictilisib 100 nM	cell viability, 1 nM [%]	cell viability, 10 nM [%]	cell viability, 100 nM [%]	cell viability, 1000 nM [%]	cell viability, 10000 nM [%]
BV-173	–	–	–	–	109	96.7	92.2	98.9	95.2
HEL	–	–	–	–	110	90.4	90	113	104
HL-60 [2]	–	–	–	–	107	93.1	93.5	125	122
HL-60 [4]	< 0.0301	< 0.0301	< 0.0301	< 0.0301	–	–	–	–	–
K-562	–	–	–	–	106	97.9	77.2	96.2	103
KCL-22	–	–	–	–	117	92.8	102	93.3	97.6
KG-1	–	–	–	–	113	98.3	101	88.9	101
KU-812	–	–	–	–	102	93.4	87.9	97.1	97
LAMA-84	–	–	–	–	96.2	96.8	88	101	101
ML-2	–	–	–	–	104	91.3	97.3	89.2	102
MOLM-13	–	–	–	–	107	107	81.8	110	105
MV4-11	–	–	–	–	112	102	102	111	112
Mono-Mac-6	–	–	–	–	114	96.3	97	100	105
NOMO-1 [1]	–	–	–	–	105	99	98.8	93.5	103
SHI-1	–	–	–	–	100	96.5	105	97.2	110
THP-1	–	–	–	–	103	98.8	101	100	102

Details	IC50 (cell viability) [µM]
NOMO-1 [3]	> 10

cell viability [%], HL-60 [5]
Details	0.001 µM	0.01 µM	0.1 µM	1 µM	10 µM
co-treatment: AZD3965 100 nM	99.1	99.8	105	102	91.6
co-treatment: DMSO vehicle	94.2	101.13	104	96.1	93.7
co-treatment: GSK2194069 100 nM	97.8	103	106	101	91.4
co-treatment: pictilisib 100 nM	103	101.2	106	101	86.3
